The values below come from patent US20230135729A1, “COMPOUND WITH ANTI-SPORE ACTIVITY AND PHARMACEUTICAL COMPOSITION THEREOF” (priority 2020, published 2023).

Holding throughout (assay type): cell-based
The test system of experiment [1] is spores of ATCC 630 strain. The experiment in a line: Inhibition of germination of C. difficile spores (MIC), strain ATCC 630. The conditions noted are these: Clostridioides difficile, ATCC630, 1 h; strain 630; sodium taurocholate as germinant, BHIS medium, 37° C., OD580 for 60 min; read-out: MIC (minimum concentration that completely inhibits spore germination). An outline of the steps: (§1)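 Germination was followed as the drop in OD580 over 60 min at 37° C in BHIS after adding sodium taurocholate to spores premixed with compound. Spores were first heat-activated (65° C, 30 min) and washed free of self-germinating spores. The inhibition rate was calculated against germinant and non-germinant controls.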

Experiment [2] deals with spores of ATCC 43255 strain. The experiment in a line: Inhibition of germination of C. difficile spores (MIC), strain ATCC 43255. To be noted: Clostridioides difficile, ATCC43255, 1 h; strain 43255; sodium taurocholate as germinant, BHIS medium, 37° C., OD580 for 60 min; read-out: MIC (minimum concentration that completely inhibits spore germination). In short, it runs like this: as §1

Experiment [3] relates to spores of ATCC BBA1870 strain. As to the kind of experiment: Inhibition of germination of C. difficile spores (MIC), strain ATCC BBA1870. To be noted: Clostridioides difficile, ATCCBBA1870STRAIN, 1 h; strain 1870; sodium taurocholate as germinant, BHIS medium, 37° C., OD580 for 60 min; read-out: MIC (minimum concentration that completely inhibits spore germination). In short, it runs like this:
as §1

In brackets after ≈: the same amount, converted by molar mass.

In the case of `CC(C)[C@@H](NC(=O)C[C@@H](C)[C@H]1CC[C@H]2[C@@H]3[C@H](N)C[C@@H]4CC(=O)CC[C@]4(C)[C@H]3CC[C@]12C)c1ccc(Cl)s1` [Compound I-174], the MIC in experiment [1], in experiment [2] and in experiment [3] was 32 µM (≈ 17.5 µg/mL) in each case.
Take `CC[C@@H](NC(=O)C[C@@H](C)[C@H]1CC[C@H]2[C@@H]3[C@H](OC(C)=O)C[C@@H]4CC(=O)CC[C@]4(C)[C@H]3CC[C@]12C)c1ccc(Cl)s1` [Compound I-175]: the MIC in experiment [1] was determined as 0.5 µM (≈ 0.288 µg/mL); in experiment [2], 1 µM (≈ 0.576 µg/mL); in experiment [3], 1 µM (≈ 0.576 µg/mL).
Consider `CC[C@@H](NC(=O)C[C@@H](C)[C@H]1CC[C@H]2[C@@H]3[C@H](OC(C)=O)C[C@@H]4CC(=O)CC[C@]4(C)[C@H]3CC[C@]12C)c1ccc(Br)s1` [Compound I-176], for which the MIC in experiment [1], in experiment [2] and in experiment [3] was 0.5 µM (≈ 0.31 µg/mL) each time.
Consider `CC(=O)O[C@@H]1C[C@@H]2CC(=O)CC[C@]2(C)[C@H]2CC[C@]3(C)[C@@H]([C@H](C)CC(=O)N[C@@H](c4ccc(Cl)s4)C(C)C)CC[C@H]3[C@H]12` [Compound I-177], for which the MIC in experiment [1] turned out to be 0.5 µM (≈ 0.295 µg/mL); in experiment [2], 1 µM (≈ 0.59 µg/mL); in experiment [3] it was 0.5 µM (≈ 0.295 µg/mL).
As for `CC(=O)O[C@@H]1C[C@@H]2CC(=O)CC[C@]2(C)[C@H]2CC[C@]3(C)[C@@H]([C@H](C)CC(=O)N[C@@H](c4ccc(Br)s4)C(C)C)CC[C@H]3[C@H]12` [Compound I-178], the MIC was determined as 0.5 µM (≈ 0.317 µg/mL) in experiment [1], 0.5 µM (≈ 0.317 µg/mL) in experiment [2] and 1 µM (≈ 0.635 µg/mL) in experiment [3].
As to `CC[C@@H](NC(=O)C[C@@H](C)[C@H]1CC[C@H]2[C@@H]3[C@H](OC(=O)CCC(=O)O)C[C@@H]4CC(=O)CC[C@]4(C)[C@H]3CC[C@]12C)c1ccc(Cl)s1` [Compound I-179], the MIC in experiment [1], in experiment [2] and in experiment [3] was 2 µM (≈ 1.27 µg/mL) each time.
On to `CC[C@@H](NC(=O)C[C@@H](C)[C@H]1CC[C@H]2[C@@H]3[C@H](OC(=O)CCC(=O)O)C[C@@H]4CC(=O)CC[C@]4(C)[C@H]3CC[C@]12C)c1ccc(Br)s1` [Compound I-180], for which the figures for the MIC in experiment [1], in experiment [2] and in experiment [3] were 1 µM (≈ 0.679 µg/mL), 2 µM (≈ 1.36 µg/mL) and 2 µM (≈ 1.36 µg/mL), respectively.
With `CC(C)[C@@H](NC(=O)C[C@@H](C)[C@H]1CC[C@H]2[C@@H]3[C@H](OC(=O)CCC(=O)O)C[C@@H]4CC(=O)CC[C@]4(C)[C@H]3CC[C@]12C)c1ccc(Cl)s1` [Compound I-181], the MIC in experiment [1], in experiment [2] and in experiment [3] was 2 µM (≈ 1.3 µg/mL) throughout.
Consider `CC(C)[C@@H](NC(=O)C[C@@H](C)[C@H]1CC[C@H]2[C@@H]3[C@H](OC(=O)CCC(=O)O)C[C@@H]4CC(=O)CC[C@]4(C)[C@H]3CC[C@]12C)c1ccc(Br)s1` [Compound I-182], for which the MIC in experiment [1], in experiment [2] and in experiment [3] was 2 µM (≈ 1.39 µg/mL) in each case.
Turning to `CCCCCCCC(=O)O[C@@H]1C[C@@H]2CC(=O)CC[C@]2(C)[C@H]2CC[C@]3(C)[C@@H]([C@H](C)CC(=O)N[C@H](CC)c4ccc(Cl)s4)CC[C@H]3[C@H]12` [Compound I-183], the MIC in experiment [1] amounted to 128 µM (≈ 84.5 µg/mL); in experiment [2], 128 µM (≈ 84.5 µg/mL); in experiment [3], 256 µM (≈ 169 µg/mL).
For `CCCCCCCC(=O)O[C@@H]1C[C@@H]2CC(=O)CC[C@]2(C)[C@H]2CC[C@]3(C)[C@@H]([C@H](C)CC(=O)N[C@H](CC)c4ccc(Br)s4)CC[C@H]3[C@H]12` [Compound I-184], the MIC in experiment [1], in experiment [2] and in experiment [3] was 128 µM (≈ 90.2 µg/mL) throughout.
As to `CCCCCCCC(=O)O[C@@H]1C[C@@H]2CC(=O)CC[C@]2(C)[C@H]2CC[C@]3(C)[C@@H]([C@H](C)CC(=O)N[C@@H](c4ccc(Cl)s4)C(C)C)CC[C@H]3[C@H]12` [Compound I-185], the MIC in experiment [1], in experiment [2] and in experiment [3] was 128 µM (≈ 86.3 µg/mL) in each case.
